Source: patent publication US7511119B2, “PRAME peptide analogues” (MannKind Corporation, priority 2005, dated 2009)
Entries after “also recorded” stand apart in the source; their conditions may differ. Square brackets hold non-standard residues; d marks the D form. Ends that are not written are not given here. Peptide text beside a SMILES is read from it. Phe(4-F) = N[C@@H](Cc1ccc(F)cc1)C(=O)O

tested on: T cell lines against natural epitope SSX-241-49; assay: Cross-reactivity and functional avidity: IFN-gamma production by T cell lines raised against natural SSX-2 41-49; type: cell-based, HHD transgenic mice; conditions: T cells raised to native peptide tested on analogs; footnote * and unit not given;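 note: analogs presented ex vivo by competent APCs to T cells specific for the non-mutated epitope, scored by lowest activating concentration, peak cytokine effect and concentration at that peak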

Compound	Cross-reactivity and fct avidity (native to analogs)*
CC[C@H](C)[C@H](NC(=O)[C@H](CCCCN)NC(=O)[C@H](CCC(=O)O)NC(=O)[C@H](CO)NC(=O)[C@H](C)NC(=O)[C@@H](N)Cc1c[nH]c2ccccc12)C(=O)N[C@@H](Cc1ccccc1)C(=O)N[C@@H](Cc1ccc(O)cc1)C(=O)N[C@H](C(=O)O)C(C)C [SSX2 41-49 (K41W)]	>10
KVSEKIFYV [SSX2 41-49-NH2 (A42V)]	10
CC[C@H](C)[C@H](NC(=O)[C@H](CCCCN)NC(=O)[C@H](CCC(=O)O)NC(=O)[C@H](CO)NC(=O)[C@@H](NC(=O)[C@@H](N)Cc1ccccc1)C(C)C)C(=O)N[C@@H](Cc1ccccc1)C(=O)N[C@@H](Cc1ccc(O)cc1)C(=O)N(C)[C@H](C(=O)O)C(C)C [SSX2 41-49 (K41F, A42V, V49MeVal)]	10
FVSEKMFYV [SSX2 41-49 (K41F, A42V, I46M)]	>10
CC[C@H](C)[C@H](NC(=O)[C@H](CCCCN)NC(=O)[C@H](CCC(=O)O)NC(=O)[C@H](CO)NC(=O)[C@@H](NC(=O)[C@@H](N)Cc1c[nH]c2ccccc12)[C@@H](C)CC)C(=O)N[C@@H](Cc1ccccc1)C(=O)N[C@@H](Cc1ccc(O)cc1)C(=O)N[C@H](C(=O)O)C(C)C [SSX2 41-49 (K41W, A42I)]	0.1
FVSEKIFY(Aib) [SSX2 41-49 (K41F, A42V, V49Aib)]	>10
CCCC[C@H](NC(=O)[C@H](Cc1ccc(O)cc1)NC(=O)[C@H](Cc1ccccc1)NC(=O)[C@@H](NC(=O)[C@H](CCCCN)NC(=O)[C@H](CCC(=O)O)NC(=O)[C@H](CO)NC(=O)[C@@H](NC(=O)[C@@H](N)Cc1ccccc1)C(C)C)[C@@H](C)CC)C(=O)O [SSX2 41-49 (K41F, A42V, V49Nle)]	>10
CC[C@H](NC(=O)[C@@H](N)CCCCN)C(=O)N[C@@H](CO)C(=O)N[C@@H](CCC(=O)O)C(=O)N[C@@H](CCCCN)C(=O)N[C@H](C(=O)N[C@@H](Cc1ccccc1)C(=O)N[C@@H](Cc1ccc(O)cc1)C(=O)N[C@H](C(=O)O)C(C)C)[C@@H](C)CC [SSX2 41-49 (A42(Abu)), KAbuSEKIFYV]	0.3
CC[C@H](C)[C@H](NC(=O)[C@H](CCCCN)NC(=O)[C@H](CCC(=O)O)NC(=O)[C@H](CO)NC(=O)[C@H](C)NC(=O)[C@@H](N)Cc1ccc(F)cc1)C(=O)N[C@@H](Cc1ccccc1)C(=O)N[C@@H](Cc1ccc(O)cc1)C(=O)N[C@H](C(=O)O)C(C)C [SSX2 41-49 (K41(Phe-4F))] (H-[Phe(4-F)]ASEKIFYV-OH)	3
FVSEKLFTA	>10
KLSEKIFYV [SSX2 41-49-NH2 (A42L)]	3
CCC[C@H](NC(=O)[C@H](Cc1ccc(O)cc1)NC(=O)[C@H](Cc1ccccc1)NC(=O)[C@@H](NC(=O)[C@H](CCCCN)NC(=O)[C@H](CCC(=O)O)NC(=O)[C@H](CO)NC(=O)[C@@H](NC(=O)[C@@H](N)Cc1ccccc1)C(C)C)[C@@H](C)CC)C(=O)O [SSX2 41-49 (K41F, A42V, V49Nva)]	0.1
CCCC[C@H](NC(=O)[C@@H](N)CCCCN)C(=O)N[C@@H](CO)C(=O)N[C@@H](CCC(=O)O)C(=O)N[C@@H](CCCCN)C(=O)N[C@H](C(=O)N[C@@H](Cc1ccccc1)C(=O)N[C@@H](Cc1ccc(O)cc1)C(=O)N[C@H](C(=O)O)C(C)C)[C@@H](C)CC [SSX2 41-49 (A42(Nle)), KNleSEKIFYV]	0.1
CC[C@H](C)[C@H](NC(=O)[C@H](CCCCN)NC(=O)[C@H](CCC(=O)O)NC(=O)[C@H](CO)NC(=O)[C@@H](NC(=O)[C@@H](N)Cc1ccccc1)C(C)C)C(=O)N[C@@H](Cc1ccccc1)C(=O)N[C@@H](Cc1ccc(O)cc1)C(=O)N[C@@H](C)C(=O)O [SSX2 41-49 (K41F, A42V, V49A)]	1
CC[C@H](C)[C@H](NC(=O)[C@H](CCCCN)NC(=O)[C@H](CCC(=O)O)NC(=O)[C@H](CO)NC(=O)[C@H](CC(C)C)NC(=O)[C@H](N)CCCCN)C(=O)N[C@@H](Cc1ccccc1)C(=O)N[C@@H](Cc1ccc(O)cc1)C(=O)N[C@H](C(=O)O)C(C)C [SSX2 41-49 (K41(D-Lys), A42L)]	10
CC[C@H](C)[C@H](NC(=O)[C@H](CCCCN)NC(=O)[C@H](CCC(=O)O)NC(=O)[C@H](CO)NC(=O)[C@H](CCSC)NC(=O)[C@@H](N)Cc1ccccc1)C(=O)N[C@@H](Cc1ccccc1)C(=O)N[C@@H](Cc1ccc(O)cc1)C(=O)N[C@H](C(=O)O)C(C)C [SSX2 41-49 (K41F, A42M)]	3
CC[C@H](C)[C@H](NC(=O)[C@H](CCCCN)NC(=O)[C@H](CCC(=O)O)NC(=O)[C@H](CO)NC(=O)[C@@H](NC(=O)[C@@H](N)Cc1ccc(O)cc1)[C@@H](C)CC)C(=O)N[C@@H](Cc1ccccc1)C(=O)N[C@@H](Cc1ccc(O)cc1)C(=O)N[C@H](C(=O)O)C(C)C [SSX2 41-49 (K41Y, A42I)]	1
K(D-Val)SEKIFYV [SSX2 41-49 (A42(D-Val))]	3

Compound	Cross-reactivity and fct avidity (native to analogs)*
CC[C@H](C)[C@H](NC(=O)[C@H](CCCCN)NC(=O)[C@H](CCC(=O)O)NC(=O)[C@H](CO)NC(=O)C(C)(C)NC(=O)[C@@H](N)CCCCN)C(=O)N[C@@H](Cc1ccccc1)C(=O)N[C@@H](Cc1ccc(O)cc1)C(=O)N[C@H](C(=O)O)C(C)C [SSX2 41-49 (A42(Aib)), KAibSEKIFYV]	3
CC[C@H](C)[C@H](NC(=O)[C@H](CCCCN)NC(=O)[C@H](CO)NC(=O)[C@H](CO)NC(=O)[C@@H](NC(=O)[C@@H](N)Cc1ccccc1)C(C)C)C(=O)N[C@@H](Cc1ccccc1)C(=O)N[C@@H](Cc1ccc(O)cc1)C(=O)N[C@H](C(=O)O)C(C)C [SSX2 41-49 (K41F, A42V, E44S)]	>10
KNal-1SEKIFYV [SSX2 41-49 (A42(Nal-1))]	>10
CC[C@H](C)[C@H](NC(=O)[C@H](CCCCN)NC(=O)[C@@H](NC(=O)[C@H](CO)NC(=O)[C@@H](NC(=O)[C@@H](N)Cc1ccccc1)C(C)C)[C@@H](C)O)C(=O)N[C@@H](Cc1ccccc1)C(=O)N[C@@H](Cc1ccc(O)cc1)C(=O)N[C@H](C(=O)O)C(C)C [SSX2 41-49 (K41F, A42V, E44T)]	>10
CC[C@H](NC(=O)[C@H](Cc1ccc(O)cc1)NC(=O)[C@H](Cc1ccccc1)NC(=O)[C@@H](NC(=O)[C@H](CCCCN)NC(=O)[C@H](CCC(=O)O)NC(=O)[C@H](CO)NC(=O)[C@@H](NC(=O)[C@@H](N)Cc1ccccc1)C(C)C)[C@@H](C)CC)C(=O)O [SSX2 41-49 (K41F, A42V, V49Abu)]	1
CC[C@H](C)[C@H](NC(=O)[C@H](CCCCN)NC(=O)[C@H](CCC(=O)O)NC(=O)[C@H](CO)NC(=O)[C@@H](NC(=O)[C@H](N)CCCCN)C(C)C)C(=O)N[C@@H](Cc1ccccc1)C(=O)N[C@@H](Cc1ccc(O)cc1)C(=O)N[C@H](C(=O)O)C(C)C [SSX2 41-49 (K41(D-Lys), A42V)]	10
CC[C@H](C)[C@H](NC(=O)[C@H](CCCCN)NC(=O)[C@H](CCC(=O)O)NC(=O)[C@H](CO)NC(=O)[C@H](Cc1ccc2ccccc2c1)NC(=O)[C@@H](N)CCCCN)C(=O)N[C@@H](Cc1ccccc1)C(=O)N[C@@H](Cc1ccc(O)cc1)C(=O)N[C@H](C(=O)O)C(C)C [SSX2 41-49 (A42(Nal-2)), KNal-2SEKIFYV]	3
CC[C@H](C)[C@H](NC(=O)[C@H](CCCCN)NC(=O)[C@H](CCC(=O)O)NC(=O)[C@H](CO)NC(=O)[C@H](CC(C)C)NC(=O)[C@@H](N)CCCCN)C(=O)N[C@@H](Cc1ccccc1)C(=O)N[C@@H](Cc1ccc(O)cc1)C(=O)N[C@H](C(=O)O)C(C)C [SSX2 41-49 (A42L)]	0.03
KASEKIFYV [SSX2 41-49-NH2]	>10
CCC[C@H](NC(=O)[C@@H](N)CCCCN)C(=O)N[C@@H](CO)C(=O)N[C@@H](CCC(=O)O)C(=O)N[C@@H](CCCCN)C(=O)N[C@H](C(=O)N[C@@H](Cc1ccccc1)C(=O)N[C@@H](Cc1ccc(O)cc1)C(=O)N[C@H](C(=O)O)C(C)C)[C@@H](C)CC [SSX2 41-49 (A42(Nva)), KNvaSEKIFYV]	0.1
CC[C@H](C)[C@H](NC(=O)[C@H](CCCCN)NC(=O)[C@H](CCC(=O)O)NC(=O)[C@H](CO)NC(=O)[C@@H](NC(=O)[C@@H](N)Cc1ccccc1)C(C)C)C(=O)N[C@@H](Cc1ccccc1)C(=O)N[C@@H](Cc1ccc(O)cc1)C(=O)N[C@@H](CC(C)C)C(=O)O [SSX2 41-49 (K41F, A42V, V49L)]	>10
CC[C@H](C)[C@H](NC(=O)[C@H](CCCCN)NC(=O)[C@H](CCC(=O)O)NC(=O)[C@H](CO)NC(=O)[C@H](CC(C)C)NC(=O)[C@@H](N)Cc1ccccc1)C(=O)N[C@@H](Cc1ccccc1)C(=O)N[C@@H](Cc1ccc(O)cc1)C(=O)N[C@H](C(=O)O)C(C)C [SSX2 41-49 (K41F, A42L)]	0.3
FVSNKIFYV [SSX2 41-49 (K41F, A42V, E44N)]	>10
K(D-Ala)SEKIFYV [SSX2 41-49 (A42(D-Ala))]	10
CC[C@H](C)[C@H](NC(=O)[C@H](CCCCN)NC(=O)[C@H](CCC(=O)O)NC(=O)[C@H](CO)NC(=O)[C@H](C)NC(=O)[C@@H](N)CCCCN)C(=O)N[C@@H](Cc1ccccc1)C(=O)N[C@@H](Cc1ccc(O)cc1)C(=O)N[C@H](C(=O)O)C(C)C [SSX2 41-49, reference compound]	1
KVSEKIFYI [SSX2 41-49 (A42V, V49I)]	0.3
FVSEKVFYV (T cell peptide epitope analog) [SSX2 41-49 (K41F, A42V, I46V)]	1

same assay, conditions: compared with wild-type peptide

Compound	activity in cross-reactivity assay (IFN-gamma production by wild-type SSX-2 41-49 specific T cells), in words
KLSEKIFYV [SSX2 41-49-NH2 (A42L)]	lower concentration
KASEKIFYVY (T cell peptide epitope analog) [SSX-241-50, wild-type SSX-2 41-50 decamer, reference compound]	no immunological activity; also recorded: significantly less active
